ChEMBL document CHEMBL5120927, “LEGO-Lipophosphonoxins: A Novel Approach in Designing Membrane Targeting Antimicrobials” (J Med Chem, 2022)
≈ marks a conversion by molar mass, not a printed value.

What was measured:
Staphylococcus aureus [1] = test: Antibacterial activity against wild type Staphylococcus aureus 4717/B assessed as reduction in microbial growth incubated for 24 hrs by microdilution assay; assay type: functional
Staphylococcus aureus [2] = test: Antibacterial activity against wild type Staphylococcus aureus 4502/A assessed as reduction in microbial growth incubated for 24 hrs by microdilution assay; assay type: functional
Staphylococcus aureus [3] = test: Antibacterial activity against wild type Staphylococcus aureus 4679/B assessed as reduction in microbial growth incubated for 24 hrs by microdilution assay; assay type: functional
Staphylococcus aureus [4] = test: microbe, parasite or virus in culture; settings: 4880/C, 24 h
Description: Antibacterial activity against wild type Staphylococcus aureus 4880/C assessed as reduction in microbial growth incubated for 24 hrs by microdilution assay

Staphylococcus aureus [5] = test: Antibacterial activity against wild type methicillin resistant Staphylococcus aureus 5017/C assessed as reduction in microbial growth incubated for 24 hrs by microdilution assay; assay type: functional
Staphylococcus aureus [6] = test: Antibacterial activity against wild type Staphylococcus aureus 4788/B assessed as reduction in microbial growth incubated for 24 hrs by microdilution assay; assay type: functional
Staphylococcus aureus [7] = test: Antibacterial activity against […] Staphylococcus aureus 4463/A assessed as reduction in microbial growth incubated for 24 hrs by microdilution assay; assay type: functional
Staphylococcus aureus [8] = test: Antibacterial activity against wild type Staphylococcus aureus 4738/B assessed as reduction in microbial growth incubated for 24 hrs by microdilution assay; assay type: functional
Staphylococcus aureus [9] = test: Antibacterial activity against wild type Staphylococcus aureus 78/CF assessed as reduction in microbial growth incubated for 24 hrs by microdilution assay; assay type: functional
Staphylococcus aureus [10] = test: Antibacterial activity against wild type Staphylococcus aureus 4557/A assessed as reduction in microbial growth incubated for 24 hrs by microdilution assay; assay type: functional
Staphylococcus aureus [11] = test: Antibacterial activity against wild type Staphylococcus aureus 4515/A assessed as reduction in microbial growth incubated for 24 hrs by microdilution assay; assay type: functional
Staphylococcus aureus [12] = test: Antibacterial activity against wild type Staphylococcus aureus 4504/A assessed as reduction in microbial growth incubated for 24 hrs by microdilution assay; assay type: functional
Staphylococcus aureus [13] = test: Antibacterial activity against wild type methicillin resistant Staphylococcus aureus 4968/C assessed as reduction in microbial growth incubated for 24 hrs by microdilution assay; assay type: functional
Staphylococcus aureus [14] = test: microbe, parasite or virus in culture; settings: 4862/C, 24 h
Description: Antibacterial activity against wild type Staphylococcus aureus 4862/C assessed as reduction in microbial growth incubated for 24 hrs by microdilution assay

Staphylococcus aureus [15] = test: Antibacterial activity against wild type Staphylococcus aureus 4883/C assessed as reduction in microbial growth incubated for 24 hrs by microdilution assay; assay type: functional
Staphylococcus aureus [16] = test: Antibacterial activity against antibiotic resistant Staphylococcus aureus 4740/B assessed as reduction in microbial growth incubated for 24 hrs by microdilution assay; assay type: functional
Staphylococcus aureus [17] = test: Antibacterial activity against […] Staphylococcus aureus 4461/A assessed as reduction in microbial growth incubated for 24 hrs by microdilution assay; assay type: functional
Staphylococcus aureus [18] = test: Antibacterial activity against antibiotic resistant Staphylococcus aureus 77/CF assessed as reduction in microbial growth incubated for 24 hrs by microdilution assay; assay type: functional
Staphylococcus aureus [19] = test: Antibacterial activity against wild type Staphylococcus aureus 4482/A assessed as reduction in microbial growth incubated for 24 hrs by microdilution assay; assay type: functional
Staphylococcus aureus [20] = test: Antibacterial activity against wild type methicillin resistant Staphylococcus aureus 4561/A assessed as reduction in microbial growth incubated for 24 hrs by microdilution assay; assay type: functional
Staphylococcus aureus [21] = test: Antibacterial activity against […] Staphylococcus aureus 4460/A assessed as reduction in microbial growth incubated for 24 hrs by microdilution assay; assay type: functional
Staphylococcus aureus [22] = test: Antibacterial activity against wild type Staphylococcus aureus 5079/C assessed as reduction in microbial growth incubated for 24 hrs by microdilution assay; assay type: functional
Staphylococcus aureus [23] = test: Antibacterial activity against wild type Staphylococcus aureus 4566/A assessed as reduction in microbial growth incubated for 24 hrs by microdilution assay; assay type: functional
Staphylococcus aureus [24] = test: Antibacterial activity against wild type Staphylococcus aureus 4904/C assessed as reduction in microbial growth incubated for 24 hrs by microdilution assay; assay type: functional
Staphylococcus aureus [25] = test: Antibacterial activity against wild type Staphylococcus aureus 4740/B assessed as reduction in microbial growth incubated for 24 hrs by microdilution assay; assay type: functional
Staphylococcus aureus [26] = test: Antibacterial activity against wild type Staphylococcus aureus 4561/A assessed as reduction in microbial growth incubated for 24 hrs by microdilution assay; assay type: functional
Staphylococcus aureus [27] = test: Antibacterial activity against antibiotic resistant Staphylococcus aureus 4504/A assessed as reduction in microbial growth incubated for 24 hrs by microdilution assay; assay type: functional
Staphylococcus aureus [28] = test: Antibacterial activity against antibiotic resistant Staphylococcus aureus 4679/B assessed as reduction in microbial growth incubated for 24 hrs by microdilution assay; assay type: functional
Staphylococcus aureus [29] = test: Antibacterial activity against antibiotic resistant Staphylococcus aureus 4502/A assessed as reduction in microbial growth incubated for 24 hrs by microdilution assay; assay type: functional
Staphylococcus aureus [30] = test: Antibacterial activity against wild type Staphylococcus aureus 4968/C assessed as reduction in microbial growth incubated for 24 hrs by microdilution assay; assay type: functional
Staphylococcus aureus [31] = test: Antibacterial activity against wild type Staphylococcus aureus 77/CF assessed as reduction in microbial growth incubated for 24 hrs by microdilution assay; assay type: functional

## CC[C@H]1OC(=O)[C@H](C)[C@@H](O[C@H]2C[C@@](C)(OC)[C@@H](O)[C@H](C)O2)[C@H](C)[C@@H](O[C@@H]2O[C@H](C)C[C@H](N(C)C)[C@H]2O)[C@](C)(O)C[C@@H](C)C(=O)[C@H](C)[C@@H](O)[C@]1(C)O [ERYTHROMYCIN]
Staphylococcus aureus [1]
  MIC: 0.25 µg/mL
Staphylococcus aureus [2]
  MIC: 0.125 µg/mL
Staphylococcus aureus [3]
  MIC: 0.25 µg/mL
Staphylococcus aureus [4]
  MIC: 0.25 µg/mL (≈ 0.341 µM)
Staphylococcus aureus [5]
  MIC: > 16 µg/mL
Staphylococcus aureus [6]
  MIC: 0.125 µg/mL
Staphylococcus aureus [7]
  MIC: 0.25 µg/mL
Staphylococcus aureus [8]
  MIC: 0.25 µg/mL
Staphylococcus aureus [9]
  MIC: 0.125 µg/mL
Staphylococcus aureus [10]
  MIC: 0.25 µg/mL
Staphylococcus aureus [11]
  MIC: 0.25 µg/mL
Staphylococcus aureus [12]
  MIC: 0.25 µg/mL
Staphylococcus aureus [13]
  MIC: > 16 µg/mL
Staphylococcus aureus [14]
  MIC: 0.25 µg/mL (≈ 0.341 µM)
Staphylococcus aureus [15]
  MIC: 0.25 µg/mL
Staphylococcus aureus [16]
  MIC: > 16 µg/mL
Staphylococcus aureus [17]
  MIC: 0.25 µg/mL
Staphylococcus aureus [18]
  MIC: > 16 µg/mL
Staphylococcus aureus [19]
  MIC: 0.25 µg/mL
Staphylococcus aureus [20]
  MIC: > 4 µg/mL
Staphylococcus aureus [21]
  MIC: 0.25 µg/mL
Staphylococcus aureus [22]
  MIC: 0.25 µg/mL
Staphylococcus aureus [23]
  MIC: 0.25 µg/mL
Staphylococcus aureus [24]
  MIC: 0.25 µg/mL

## GENTAMICIN
Staphylococcus aureus [25]
  MIC: 0.25 µg/mL
Staphylococcus aureus [26]
  MIC: 0.25 µg/mL
Staphylococcus aureus [1]
  MIC: 0.25 µg/mL
Staphylococcus aureus [27]
  MIC: > 32 µg/mL
Staphylococcus aureus [28]
  MIC: > 32 µg/mL
Staphylococcus aureus [6]
  MIC: 0.25 µg/mL
Staphylococcus aureus [7]
  MIC: 0.25 µg/mL
Staphylococcus aureus [8]
  MIC: 0.25 µg/mL
Staphylococcus aureus [9]
  MIC: 1 µg/mL
Staphylococcus aureus [10]
  MIC: 1 µg/mL
Staphylococcus aureus [11]
  MIC: 0.25 µg/mL
Staphylococcus aureus [29]
  MIC: > 32 µg/mL
Staphylococcus aureus [15]
  MIC: 0.25 µg/mL
Staphylococcus aureus [17]
  MIC: 0.25 µg/mL
Staphylococcus aureus [18]
  MIC: > 32 µg/mL
Staphylococcus aureus [30]
  MIC: 0.25 µg/mL
Staphylococcus aureus [19]
  MIC: 0.25 µg/mL
Staphylococcus aureus [21]
  MIC: 0.25 µg/mL
Staphylococcus aureus [22]
  MIC: 0.25 µg/mL
Staphylococcus aureus [23]
  MIC: 0.25 µg/mL
Staphylococcus aureus [24]
  MIC: 0.25 µg/mL

## Cc1onc(-c2ccccc2)c1C(=O)N[C@@H]1C(=O)N2[C@@H]1SC(C)(C)[C@@H]2C(=O)O [OXACILLIN]
Staphylococcus aureus [25]
  MIC: 0.25 µg/mL
Staphylococcus aureus [1]
  MIC: 0.25 µg/mL
Staphylococcus aureus [2]
  MIC: 0.25 µg/mL
Staphylococcus aureus [3]
  MIC: 0.25 µg/mL
Staphylococcus aureus [4]
  MIC: 0.25 µg/mL (≈ 0.623 µM)
Staphylococcus aureus [31]
  MIC: 0.25 µg/mL
Staphylococcus aureus [5]
  MIC: > 16 µg/mL
Staphylococcus aureus [6]
  MIC: 0.125 µg/mL
Staphylococcus aureus [7]
  MIC: 0.25 µg/mL
Staphylococcus aureus [8]
  MIC: 0.25 µg/mL
Staphylococcus aureus [9]
  MIC: 0.25 µg/mL
Staphylococcus aureus [10]
  MIC: 0.25 µg/mL
Staphylococcus aureus [11]
  MIC: 0.25 µg/mL
Staphylococcus aureus [12]
  MIC: 0.25 µg/mL
Staphylococcus aureus [13]
  MIC: > 16 µg/mL
Staphylococcus aureus [14]
  MIC: 0.25 µg/mL (≈ 0.623 µM)
Staphylococcus aureus [15]
  MIC: 0.25 µg/mL
Staphylococcus aureus [17]
  MIC: 0.25 µg/mL
Staphylococcus aureus [19]
  MIC: 0.25 µg/mL
Staphylococcus aureus [20]
  MIC: > 8 µg/mL
Staphylococcus aureus [21]
  MIC: 0.25 µg/mL
Staphylococcus aureus [22]
  MIC: 0.25 µg/mL
Staphylococcus aureus [23]
  MIC: 0.25 µg/mL
Staphylococcus aureus [24]
  MIC: 0.25 µg/mL

## O=C(O)c1cn(C2CC2)c2cc(N3CCNCC3)c(F)cc2c1=O [CIPROFLOXACIN]
Staphylococcus aureus [25]
  MIC: 0.5 µg/mL
Staphylococcus aureus [1]
  MIC: 0.25 µg/mL
Staphylococcus aureus [3]
  MIC: 0.25 µg/mL
Staphylococcus aureus [4]
  MIC: 0.25 µg/mL (≈ 0.754 µM)
Staphylococcus aureus [31]
  MIC: 0.5 µg/mL
Staphylococcus aureus [5]
  MIC: > 8 µg/mL
Staphylococcus aureus [6]
  MIC: 0.063 µg/mL
Staphylococcus aureus [7]
  MIC: 0.25 µg/mL
Staphylococcus aureus [8]
  MIC: 0.25 µg/mL
Staphylococcus aureus [9]
  MIC: 0.25 µg/mL
Staphylococcus aureus [10]
  MIC: 0.25 µg/mL
Staphylococcus aureus [12]
  MIC: 0.25 µg/mL
Staphylococcus aureus [13]
  MIC: > 8 µg/mL
Staphylococcus aureus [14]
  MIC: 0.25 µg/mL (≈ 0.754 µM)
Staphylococcus aureus [15]
  MIC: 0.25 µg/mL
Staphylococcus aureus [17]
  MIC: 0.25 µg/mL
Staphylococcus aureus [20]
  MIC: > 8 µg/mL
Staphylococcus aureus [22]
  MIC: 0.25 µg/mL
Staphylococcus aureus [23]
  MIC: 0.25 µg/mL
Staphylococcus aureus [24]
  MIC: 0.25 µg/mL
